Where a SMILES comes first, the peptide text is derived from it. The star is where a group is joined. Cbz = O=C(OCc1ccccc1)*
Key:
SKIP protein = test: Immunoblot of endogenous SKIP protein in 293 cells exposed to FP; assay type: cell-based; details: 293 cells exposed for 18 hr
Description: (§1) SKIP expression is blocked by Flavopiridol (FP), a CDK inhibitor currently in clinical trials. […] SKIP protein levels decline starting at lOnM FP, though mRNA levels are unaffected at 10 nM FP.

SKIP mRNA = SKIP mRNA levels in 293 cells exposed to FP; assay type: cell-based; details: 10 nM FP
Description: as §1

[1] = tested on: Ser2-phosphorylated RNAPII; test: Immunoblot of Ser2-phosphorylated RNAPII in response to FP; assay type: cell-based
Description: FIG. 8. Immunoblot detection of SKIP and Ser2-phosphorylated RNAPII in response to increasing levels of flavopiridol.
In contrast, levels of Ser2-phosphorylated RNAPII decline with exposure to much higher concentrations of FP (>100 nM).

p21 = test: Immunoblot of p21 protein in U2OS cells; assay type: cell-based, human; details: U2OS cells transfected with control or SKIP siRNA, proteasome inhibitor treatment
Excerpt: As observed for many essential proteins, depletion of SKIP by siRNA increases endogenous p53 levels. […] To assess whether SKIP plays a role in the normal p53 stress response, endogenous p53 was induced in two human cancer cell lines, U2OS (osteosarcoma) and HCT116 (colon cancer), using the chemotherapeutic DNA damage agents etoposide (U2OS cells) or doxorubicin (HCT116 cells). […] Consequently, PUMA expression was elevated in SKIP-depleted cells, and increased further with DNA damage (FIG. 1). In contrast, both basal and stress-induced p21 mRNA levels decreased in SKIP-depleted HCT116 or U2OS cells, compared with cells treated with a control siRNA, accompanied by a strong block to p21 protein expression, as detected by immunoblot (FIG. 1A, 1B, lanes 1-3 and 4-6). Similar results were obtained using two different SKIP siRNAs.
To determine whether SKIP might also affect p21 protein stability, the rate of p21 protein turnover was measured in SKIP knockdown cells in the absence of stress. Forty-eight hours after transfection with control or SKIP siRNA, U2OS cells were treated with cycloheximide (CHX) to prevent new protein synthesis, and the decay of endogenous p21 protein was measured.

p21 mRNA = test: TGF-β induction of p21 mRNA in MDA-MB-231 cells (qRT-PCR); assay type: cell-based, human; details: TGF-β 5 ng/mL
Description: FIG. 5. SKIP is required for Nutlin and TGF-β-induced p21 gene expression. (A, left) qRT-PCR analysis of p21 and PUMA mRNA levels. U2OS cells were transfected with control or SKIP siRNA for 48 h, and incubated in the presence or absence of Nutlin (10 μM) for 18 h. (Right, lanes 1-4) Protein lysates were subjected to immunoblot analysis. (B) qRT-PCR analysis of p21 mRNA levels. MDA-MB-231 cells were transfected with control or SKIP siRNA for 48 h, followed by incubation in the presence or absence of TGF-β (5 ng/mL) for the indicated times. (C, lanes 1-6) Immunoblot analysis of SKIP, Smad2/3, p53, p21, or GAPDH in cells transfected with control or SKIP siRNA for 48 h, followed by treatment with TGF-β (5 ng/mL) for the indicated times. (D, left) qRT-PCR analysis of p21 mRNA levels in HCT 116 p53^−/− cells, H1299 cells, HeLa cells and MDA-MB-231 cells transfected with control or SKIP siRNA for 48 h. (Right, lanes 1-8) Protein lysates were subjected to immunoblot analysis. All of the mRNA expression levels were normalized to GAPDH mRNA, and are represented as fold increase or decrease over untreated cells. Error bars represent the standard deviation obtained from three independent experiments. […]

[2] = target: T1, SKIP (Ski-interacting protein), endogenous (human, UniProt Q13573 2-536); test: GST pull-down from HCT116 nuclear extract, Western blot
T1 construct: Endogenous protein of human HCT116 nuclear extract (pull-downs) or U2OS whole-cell lysate (co-IP); also called SNW1; NCoA62
T1 sequence: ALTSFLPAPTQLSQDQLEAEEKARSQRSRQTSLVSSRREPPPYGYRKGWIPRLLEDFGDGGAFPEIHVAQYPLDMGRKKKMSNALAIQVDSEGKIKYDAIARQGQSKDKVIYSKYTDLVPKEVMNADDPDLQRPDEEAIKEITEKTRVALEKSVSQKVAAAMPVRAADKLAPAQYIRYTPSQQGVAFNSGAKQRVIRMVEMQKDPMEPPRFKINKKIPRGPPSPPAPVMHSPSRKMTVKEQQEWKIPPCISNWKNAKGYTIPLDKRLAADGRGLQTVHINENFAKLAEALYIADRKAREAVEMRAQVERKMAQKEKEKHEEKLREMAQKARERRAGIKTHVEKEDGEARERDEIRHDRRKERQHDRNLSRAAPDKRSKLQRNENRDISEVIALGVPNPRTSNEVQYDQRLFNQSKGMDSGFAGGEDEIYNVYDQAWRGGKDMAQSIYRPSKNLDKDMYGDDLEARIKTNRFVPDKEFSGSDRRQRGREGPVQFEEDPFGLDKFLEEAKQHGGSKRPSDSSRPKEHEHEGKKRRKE
Description: SST fusion constructs were expressed in BL21 *Escherichia coli* cells, and crude bacterial lysates were prepared by sonication in GST lysis buffer (25 mM Tris at pH 7.5, 150 mM NaCl, 1 mM EDTA, protease inhibitor). Approximately 10 μg of the appropriate GST fusion proteins was incubated with precleared HCT116 nuclear extract for 2 h at 4° C. The binding reaction was then added with 30 μL of glutathione-Sepharose beads and mixed for another 1 h at 4° C. The beads were washed four times with the above GST lysis buffer, separated on a 10% SDS-PACE, and analyzed by Western blotting.
(§2) Figure 4: FIG. 4. SKIP associates with unspliced p21 mRNA and recruits U2AF65. (A) Immunoblot analysis of the interaction between SKIP, U2AF35, and U2AF65 in GST pull-down experiments from HCT116 cell nuclear extract. (B) Total proteins were extracted from U2OS cells for coimmunoprecipitation. Immunoprecipitates were examined by Western blot using antibodies against SKIP, U2AF35, or U2AF65. (C) ChIP analysis of U2AF65 binding on the p21 and PUMA genes. U2OS cells were transfected with control or SKIP siRNA for 48 h, followed by treatment with vehicle or etoposide (20 μM) for 6 h. Protein extracts were immunoprecipitated with antibodies against U2AF65. ChIP-enriched DNA was quantified by qPCR with the indicated primers in FIG. 2A. […] Immunoprecipitated p21 mRNA was detected using qRT-PCR with the indicated primers.

[3] = target: T1, SKIP (Ski-interacting protein), …; test: co-immunoprecipitation with SKIP antibody from U2OS whole-cell lysate, Western blot
Description: The immune complexes were subjected to SDS-PAGE followed by immunoblotting with the secondary antibody. For RNA-IP experiments, cells were lysed in ice-cold NET-2 buffer (50 mM Tris-HCL at pH 7.4, 300 mM NaCl, 0.5% [vol/vol] Nonidet P-40, 1× complete protease inhibitors [Roche], 100 U/mL RNase OUT [Invitrogen]). The lysate was incubated with the indicated antibodies or control normal rabbit/mouse IgG on a rotator overnight at 4° C., followed by addition of protein A/G agarose (Invitrogen) for 2 h at 4° C. Beads were then washed four times using the NET-2 buffer. Immunoprecipitated RNA was then extracted using Trizol and reverse-transcribed with random hexamers. The resulting cDNA was analyzed with the indicated primer sets (Table 5).
as §2, with “U2OS cells were transfected with control or SKIP siRNA for 48 h, followed by treatment with vehicle or etoposide (20 μM) for 6 h. Protein extracts were immunoprecipitated with antibodies against U2AF65.” left out

Q: What does the source list for `CN1CC[C@H](c2c(O)cc(O)c3c(=O)cc(-c4ccccc4Cl)oc23)[C@H](O)C1` [FP, Flavopiridol]?
A: FP concentration at which SKIP protein levels start to decline (SKIP protein): lO; SKIP mRNA levels (SKIP mRNA): unaffected; FP concentration at which levels of Ser2-phosphorylated RNAPII decline [1]: > 100 nM

Q: With `CC(C)C[C@@H](C=O)NC(=O)[C@H](CC(C)C)NC(=O)[C@H](CC(C)C)NC(=O)OCc1ccccc1` [MG132] (Cbz-Leu-Leu-Leu-aldehyde) as the molecule, how does the p21 protein levels (p21) read?
A: The p21 protein levels was “elevated p21 protein levels”.

Q: With TGF-β as the molecule, how does the “time of peak p21 mRNA levels after induction” value (p21 mRNA) read?
A: The value was 4 h.

B1: GST-U2AF35 (other, UniProt Q01081 1-240, looked up)
chain: MAEYLASIFGTEKDKVNCSFYFKIGACRHGDRCSRLHNKPTFSQTIALLNIYRNPQNSSQSADGLRCAVSDVEMQEHYDEFFEEVFTEMEEKYGEVEEMNVCDNLGDHLVGNVYVKFRREEDAEKAVIDLNNRWFNGQPIHAELSPVTDFREACCRQYEMGECTRGGFCNFMHLKPISRELRRELYGRRRKKHRSRSRSRERRSRSRDRGRGGGGGGGGGGGGRERDRRRSRDRERSGRF
notes: not shown: glutathione-S-transferase (GST) fusion tag
Q: Does B1 bind [2]?
A: Result: no binding

B2: U2AF35 (other, human, UniProt Q01081 2-240, looked up)
chain: AEYLASIFGTEKDKVNCSFYFKIGACRHGDRCSRLHNKPTFSQTIALLNIYRNPQNSSQSADGLRCAVSDVEMQEHYDEFFEEVFTEMEEKYGEVEEMNVCDNLGDHLVGNVYVKFRREEDAEKAVIDLNNRWFNGQPIHAELSPVTDFREACCRQYEMGECTRGGFCNFMHLKPISRELRRELYGRRRKKHRSRSRSRERRSRSRDRGRGGGGGGGGGGGGRERDRRRSRDRERSGRF
notes: Endogenous protein from human cancer cell lines; also called nuclear U2AF35
Q: Does B2 bind [3]?
A: Result: no binding
